We go through eight compounds from ChEMBL document CHEMBL1136373, “Conformationally restricted 3,4-diarylfuranones (2,3a,4,5-tetrahydronaphthofuranones) as selective cyclooxygenase-2 inhibitors” (Bioorg Med Chem Lett, 2003).

Experiment [1] addresses T1, Prostaglandin G/H synthase 1 (Homo sapiens, UniProt P23219). Kind of experiment: In vitro inhibitory activity against recombinant human Prostaglandin G/H synthase 1.
The target of experiment [2] is T2, Prostaglandin G/H synthase 2 (Homo sapiens, UniProt P35354).
T2 sequence (P35354 whole entry): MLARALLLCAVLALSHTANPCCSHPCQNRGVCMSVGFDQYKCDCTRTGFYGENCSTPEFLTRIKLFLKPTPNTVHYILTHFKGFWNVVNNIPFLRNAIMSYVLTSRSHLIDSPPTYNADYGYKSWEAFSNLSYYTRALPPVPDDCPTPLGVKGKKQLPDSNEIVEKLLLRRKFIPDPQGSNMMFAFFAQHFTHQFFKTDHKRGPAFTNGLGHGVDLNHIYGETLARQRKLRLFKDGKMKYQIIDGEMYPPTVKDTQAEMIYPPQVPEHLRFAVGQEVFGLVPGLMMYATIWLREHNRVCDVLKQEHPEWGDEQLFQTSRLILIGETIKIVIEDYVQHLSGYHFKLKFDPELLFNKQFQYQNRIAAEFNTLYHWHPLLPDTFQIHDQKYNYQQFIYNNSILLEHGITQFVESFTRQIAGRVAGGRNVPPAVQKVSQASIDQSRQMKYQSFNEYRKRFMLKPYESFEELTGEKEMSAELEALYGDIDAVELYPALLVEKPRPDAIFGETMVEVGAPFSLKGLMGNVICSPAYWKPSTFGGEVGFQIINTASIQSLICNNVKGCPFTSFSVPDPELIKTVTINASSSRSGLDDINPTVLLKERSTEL
Put plainly: In vitro inhibitory activity against recombinant human Prostaglandin G/H synthase 2.

Experiment [3] addresses T1, Prostaglandin G/H synthase 1. Put plainly: Ratio of in vitro inhibitory activity against recombinant human COX-1 to that of recombinant human COX-2.
Experiment [4] shares this target. Put plainly: In vitro inhibitory activity against recombinant human Prostaglandin G/H synthase 1 at concentration of 100 uM.

pIC50: −log10 of the molar value.

T1 sequence (P23219 whole entry): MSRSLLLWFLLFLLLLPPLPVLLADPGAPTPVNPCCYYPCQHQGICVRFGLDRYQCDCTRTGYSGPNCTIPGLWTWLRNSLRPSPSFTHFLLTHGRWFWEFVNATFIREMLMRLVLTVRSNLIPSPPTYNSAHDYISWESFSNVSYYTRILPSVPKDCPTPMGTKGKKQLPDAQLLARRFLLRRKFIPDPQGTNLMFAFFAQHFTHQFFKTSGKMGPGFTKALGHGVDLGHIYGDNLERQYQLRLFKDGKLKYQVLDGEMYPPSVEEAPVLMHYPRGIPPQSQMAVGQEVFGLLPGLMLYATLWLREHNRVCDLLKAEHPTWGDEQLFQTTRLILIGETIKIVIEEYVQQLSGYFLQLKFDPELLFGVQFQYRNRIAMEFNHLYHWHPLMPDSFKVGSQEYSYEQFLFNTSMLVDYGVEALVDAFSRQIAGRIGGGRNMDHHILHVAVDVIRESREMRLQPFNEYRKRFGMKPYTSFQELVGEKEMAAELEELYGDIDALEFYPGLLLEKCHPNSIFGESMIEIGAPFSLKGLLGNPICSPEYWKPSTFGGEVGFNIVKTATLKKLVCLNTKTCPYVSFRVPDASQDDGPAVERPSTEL

Take `Cc1ccc2c(c1)C1=C(c3ccc(S(C)(=O)=O)cc3)C(=O)OC1CC2` (stereo unspecified): the pIC50 (in general, −log10 of the IC50, conventionally taken in molar units) in experiment [1] was < 4.52; in experiment [2] it was 6.18. The Ratio in experiment [3] is > 45.1. Also, the inhibition – broadly, the relative decrease from the control value, in per cent – in experiment [4] worked out at 52%.
For `C[S+]([O-])c1ccc(C2=C3c4ccccc4CCC3(O)OC2=O)cc1` (stereo unspecified), in experiment [4], the inhibition is 11%.
For the compound `CSc1ccc(C2=C3c4cc(C)ccc4CCC3OC2=O)cc1` (stereo unspecified), the pIC50 in experiment [1] was 7.21; in experiment [2] it was 6.01. In addition, in experiment [4], the inhibition came to 100%.
Regarding `CSc1ccc(C2=C3c4cc(C)ccc4CCC3(O)OC2=O)cc1` (stereo unspecified), the pIC50 in experiment [1] was 4.88; in experiment [2], 6.17. Also, the inhibition in experiment [4] was 97%.
Turning to `CS(=O)(=O)c1ccc(C2=C3c4ccccc4CCC3OC2=O)cc1` (stereo unspecified), the pIC50 in experiment [1] was < 4.35; in experiment [2] it was 6.25. In addition, in experiment [4], the inhibition is 100%.
Turning to `CS(=O)(=O)c1ccc(C2=C3c4ccccc4CCC3(O)OC2=O)cc1` (stereo unspecified), the inhibition in experiment [4] came to 57%.
Take `CSc1ccc(C2=C3c4ccccc4CCC3(O)OC2=O)cc1` (stereo unspecified): the pIC50 in experiment [1] is 4.78; in experiment [2], 6.07. In experiment [4], the inhibition was 80%.
In the case of `CSc1ccc(C2=C3c4ccccc4CCC3OC2=O)cc1` (stereo unspecified), the pIC50 in experiment [1] is 7.28; in experiment [2], 6.08. Besides, the inhibition in experiment [4] was found to be 100%.
